Assay: photocatalytic hydrogen evolution rate (per 5 mg catalyst); higher = more photocatalytic H2 evolution; extreme values may be limits of the assay
Conditions: catalyst mass (mg): 5; Pt cocatalyst (wt%): 3; sacrificial medium: triethylamine/methanol/water 1:1:1
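Note: aromatic molecules in triethylamine/methanol/water with Pt photoreduced in situ, irradiated 3 h under a 1 sun AM 1.5G solar simulator (350–1000 nm), H2 quantified by headspace gas chromatography; listed molecule itself used as the photocatalyst at 5 mg per vial.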

SMILES | photocatalytic hydrogen evolution rate [µmol/h]
O=C(O)Cc1ccc(-c2ccccc2)cc1 | 0.0393
N#Cc1cnccc1Br | 0.0501
c1ccc2c(c1)ccc1ccccc12 | 0.057
N#Cc1c(F)c(F)nc(F)c1F | 0.00201
Brc1ccc2[nH]c3ccc(Br)cc3c2c1 | 0
c1ccc(Nc2ccccc2)cc1 | 0
c1ccc(-c2cccc(-c3ccccc3)c2)cc1 | 0
Cc1cc(C#N)ccc1C#N | 0
N#Cc1ccccc1CBr | 0
Brc1cnc(Br)nc1 | 0
N#Cc1ccc(C#N)cc1 | 0
Brc1cc(Br)cc(-c2ccccc2)c1 | 0
Brc1ccc(N(c2ccccc2)c2ccc(Br)cc2)cc1 | 0.729
Cc1cc(C=O)c(O)c(C=O)c1 | 7.62
CCN1C(=O)C(=O)c2cc(Br)cc(Br)c21 | 0.105
O=Cc1cc(C=O)cc(C=O)c1 | 0.0923
Brc1ccc2c(c1)Cc1cc(Br)ccc1-2 | 0
OC(c1ccccc1)(c1ccccc1)c1ccccc1 | 0
c1ccc(N(c2ccccc2)c2ccc(N(c3ccccc3)c3ccccc3)cc2)cc1 | 0
COc1cc(Br)ccc1C=O | 12.3
CC1(C)OB(c2cn[nH]c2)OC1(C)C | 0
Cn1cnc(C#N)c1C#N | 0.0397
O=Cc1ccc(/C=C/c2ccccc2)cc1 | 0.017
O=Cc1cccc(C(=O)O)c1 | 1.06
O=C(O)[C@@H]1CCC(=O)N1C(=O)OCc1ccccc1 | 0
O=Cc1cc(F)c(O)c(F)c1 | 0.191
O=Cc1ccc(O)c(Cl)c1 | 0.0661

SMILES | photocatalytic hydrogen evolution rate [µmol/h]
O=C(c1ccccc1)c1cc(C(=O)c2ccccc2)cc(C(=O)c2ccccc2)c1 | 14.2
C#Cc1ccc(C(=O)O)cc1 | 0
Cc1ccc(Nc2ccc(C)cc2)cc1 | 0.074
Oc1ccc(O)cc1 | 0
O=Cc1ccc(Br)c(Cl)c1 | 1.45
Brc1ccc(C#Cc2ccc(Br)cc2)cc1 | 0
O=C(C(=O)c1ccc(C(=O)C(=O)c2ccccc2)cc1)c1ccccc1 | 0.00597
C=Cc1ccccc1 | 0
O=Cc1ccc(-c2ccc(-c3ccc(C=O)s3)s2)s1 | 1.6
O=Cc1ccc2nccnc2c1 | 0
O=C1c2ccccc2C(=O)c2c(Cl)cccc21 | 0
Oc1cc2c3cc(O)c(O)cc3c3cc(O)c(O)cc3c2cc1O | 0.155
OCc1ccc(-c2ccc(CO)cc2)cc1 | 0.00977
O=c1cccc[nH]1 | 0
NNC(=O)c1cc(Br)c(O)c(Br)c1 | 0
N#Cc1nc(N)c(N)nc1C#N | 0
O=Cc1ccc(C(=O)O)cc1 | 2.34
O=Cc1ccc(B(O)O)cc1 | 0.0401
CC1(C)OB(c2ccc3c(c2)[nH]c2ccccc23)OC1(C)C | 0
Nc1ccc(-c2ccc(-c3ccc(N)cc3)cc2)cc1 | 0
O=C1C=CC(=O)c2c(O)cccc21 | 0
Oc1c(Br)c(O)c(Br)c(O)c1Br | 0
N#Cc1ccc(C=O)cc1 | 0.136
COC(=O)c1cc(Br)oc1Br | 0
Nc1ccncc1 | 0
O=Cc1ccc(-c2ccc(F)cc2)cc1 | 5.25
O=C(O)c1ccc(-c2cc(-c3ccc(C(=O)O)cc3)c(-c3ccc(C(=O)O)cc3)cc2-c2ccc(C(=O)O)cc2)cc1 | 0.052

SMILES | photocatalytic hydrogen evolution rate [µmol/h]
O=c1[nH]cc(Br)nc1Br | 0
Brc1ccc2c(c1)sc1cc(Br)ccc12 | 0
CC(C)(C)c1cc2ccc3c(Br)cc(Br)c4ccc(c1)c2c34 | 0.121
N#CCc1ccc(C#N)cc1 | 0
c1ccc(N=C(Nc2ccccc2)Nc2ccccc2)cc1 | 0
O=c1c2ccccc2c(=O)c2cc3c(=O)c4ccccc4c(=O)c3cc12 | 0
c1cc(-c2cn[nH]c2)ccc1-c1cn[nH]c1 | 0
Cc1cc(-c2ccc(N)c(C)c2)ccc1N | 0
N[C@@H](Cc1ccccc1)C(=O)O | 0.0539
CCn1c2ccc(Br)cc2c2cc(Br)ccc21 | 1.25
N#Cc1ccc(-c2ccc(N)cc2)cc1 | 0
Brc1ccc2ccccc2c1 | 0.0179
N#CCc1ccccc1CC#N | 0
c1ccc2c(c1)CCc1ccccc1N2 | 0
N#Cc1cc(O)cc(C#N)c1 | 2.14
O=C(O)c1cc(Br)c(C(=O)O)cc1Br | 0
Clc1ccc2ccc(Cl)nc2n1 | 0.122
N#Cc1cc(C#N)ncn1 | 0
c1ccc2c(c1)Cc1cc3c(cc1-2)Cc1ccccc1-3 | 0.136
O=C(O)c1cc(Br)ccc1Br | 0
c1ccc(-c2c3ccccc3c(-c3ccccc3)c3c(-c4ccccc4)c4ccccc4c(-c4ccccc4)c23)cc1 | 0.0539
c1ccc(-c2nc(-c3ccccc3)nc(-c3ccc(-c4ccc(-c5nc(-c6ccccc6)nc(-c6ccccc6)n5)cc4)cc3)n2)cc1 | 0
Brc1nnc(Br)s1 | 0
Nc1c(Br)ccc(Br)c1N | 0
N#Cc1c(F)c(F)c(F)c(F)c1C#N | 4.24
COc1cc(C=O)cc(OC)c1 | 5.78

Continued, values first:

photocatalytic hydrogen evolution rate [µmol/h] | SMILES
0 | O=C1c2cccc([N+](=O)[O-])c2C(=O)c2c1cccc2[N+](=O)[O-]
0 | Nc1ccc2ccc3cccc4ccc1c2c34
0 | Nc1ccc(-c2cc(-c3ccc(N)cc3)cc(-c3ccc(N)cc3)c2)cc1
0 | Fc1c(Br)cccc1Br
0.0489 | N#Cc1ccc2ccc(C#N)cc2c1
0.0514 | Brc1cc(Br)cc(-c2cc(Br)cc(Br)c2)c1
0 | N#CCc1ccc(Cl)nc1
0 | N#Cc1ccc(-c2cccc(N)c2)cc1
0 | OB(O)c1cccc(B(O)O)c1
0 | COc1ccc(B(O)O)cc1
0 | Cc1c(O)cccc1O
1.66 | O=Cc1ccc(C#Cc2ccccc2)cc1
0.00108 | CCOC(=O)c1nc(C(=O)OCC)nc(C(=O)OCC)n1
0.297 | O=Cc1ccc(Br)nc1
0 | Nc1ccc(-c2ccc(N)c([N+](=O)[O-])c2)cc1[N+](=O)[O-]
0 | CC1(C)OB(c2ccc(B3OC(C)(C)C(C)(C)O3)cc2)OC1(C)C
0.0242 | Brc1ccc(-c2ccc(Br)cn2)nc1
0 | N#Cc1cc(N)ccn1
0.103 | c1ccc(-c2ccc(-c3nc(-c4ccc(-c5ccccc5)cc4)nc(-c4ccc(-c5ccccc5)cc4)n3)cc2)cc1
7.48 | O=c1c2ccccc2oc2ccccc12
0.055 | COc1ccc(Nc2ccc(OC)cc2)cc1
0 | COC(=O)c1nc(N)c(Br)cc1Br

photocatalytic hydrogen evolution rate [µmol/h] | SMILES
0.0761 | CC1(C)OB(c2ccc(N)cc2)OC1(C)C
0 | Cc1cc(N)ccc1C#N
0.0384 | N#Cc1ccc(C=O)s1
0 | O=C(n1ccnc1)n1ccnc1
0 | O=Cc1cccc(O)c1
0.0601 | N#Cc1ccc(-c2ccc(C#N)nc2)cn1
3.93 | O=Cc1ccc(-n2c3ccccc3c3ccccc32)cc1
0.927 | O=Cc1ccc(-c2ccc(C=O)cn2)nc1
0 | Brc1cccc(Br)n1
12.3 | CCCCCCCCCCCCCCCCCCn1c(=O)c2ccc3sc4ccccc4c4ccc(c1=O)c2c34
0 | O=Cc1ccc(C=O)c([N+](=O)[O-])c1
0 | O=C(O)c1ccc(-c2ccc(-c3cc(-c4ccc(-c5ccc(C(=O)O)cc5)cc4)cc(-c4ccc(-c5ccc(C(=O)O)cc5)cc4)c3)cc2)cc1
2.56 | O=C1c2ccccc2-c2ccccc21
0 | Brc1ccc2c3ccc(Br)cc3c3ccccc3c2c1
0.736 | O=C(C(=O)c1ccccc1)c1ccccc1
0.00797 | Nc1ccc(S(=O)(=O)c2ccc(N)cc2)cc1
0 | CC(C)(C)c1ccc(Nc2ccc(Nc3ccc(C(C)(C)C)cc3)c3c2C(=O)c2c(O)ccc(O)c2C3=O)cc1
0.00242 | OCc1cccc2cc3cccc(CO)c3cc12
0.059 | Nc1ccc(C(=O)O)cc1
0 | Nc1c(Br)cnc(Cl)c1Br
0.109 | Nc1cc(C(=O)O)ccc1C(=O)O
0 | Brc1ccc(C#CC#Cc2ccc(Br)cc2)cc1

From the supplement of paper PMC8372320
